Legend:
[1] = tested on: promoter of the human klotho gene; assay: Luciferase expression experiment, klotho promoter reporter (1.7 kbp or 240 bp) in RPTEC cells; format: cell-based; settings: 5 μM, 24 hours, reporter with klotho promoter to 1.7 kbp or 240 bp, among Comparative Examples 1 to 4 (FIG. 1)
Method: (§1) In order to evaluate whether the klotho gene was expressed by the evaluation of luciferase activity, human renal proximal tubule epithelial cells (RPTECs) (ATCC CRL-4031), which are epithelial cells of the proximal tubule of the human kidneys, were purchased from Lonza, USA and used.
(§2) For culturing, a Renal Epithelial Growth Medium (REGM™) Bullet kit, also manufactured by the same Lonza company, was used, and the cells were cultured under conditions of 37° C. and 5% CO2. As a plasmid for luciferase expression, a plasmid in which the promoter site of a human KL (klotho) gene was disposed to regulate the expression of a firefly luciferase gene was used.
The plasmid was incorporated into cells using an X-treme GENE transfection reagent from Roche. The activity of luciferase expressed in cells was measured using a Dual-Luciferase reporter assay system manufactured by Promega. After the cultured cells were treated with each compound at an indicated concentration for 24 hours, the activity of luciferase was measured. It is indirectly shown that the expression of the klotho gene may be increased when the activity of luciferase is high. […]

[2] = tested on: promoter of the human klotho gene; assay: Luciferase expression experiment, reporter gene pHKP-luc (promoter up to -2.1 kb upstream) in RPTECs; format: cell-based
Method: as §1, §2
The plasmid was incorporated into cells using an X-treme GENE transfection reagent from Roche. The activity of luciferase expressed in cells was measured using a Dual-Luciferase reporter assay system manufactured by Promega. After the cultured cells were treated with each compound at an indicated concentration for 24 hours, the activity of luciferase was measured. It is indirectly shown that the expression of the klotho gene may be increased when the activity of luciferase is high.
The results of confirming the expression of a reporter gene by treating RPTECs, which are epithelial cells of the proximal tubule of the human kidneys, with Examples 1 to 6 at concentrations of 0.5, 1 and 5 μM and Comparative Example 1 at a concentration of 5 μM and using a reporter gene (pHKP-luc) including a promoter included up to −2.1 kb upstream of the human klotho gene are illustrated in FIGS. 2 and 3.

[3] = tested on: klotho protein; assay: Klotho protein expression level in cisplatin-treated HK-2 cells; format: cell-based, human; settings: cisplatin (20 μM) disease model, KS1 3 μM, after 24 hours (FIG. 7B)
Method: As in the protocol in FIG. 7A, a disease model was made by treating HK-2 cells (human renal cells) with cisplatin (20 μM), and then treated with a KS1 compound (Example 10) (3 μM). After 24 hours, the expression degree of the klotho protein was confirmed by obtaining the cells.

[4] = tested on: klotho (KL) gene; assay: Quantitative evaluation of klotho (KL) gene expression level using real-time PCR in RPTEC cells; format: cell-based, human; settings: RPTEC cells treated for 6 hours; real-time PCR (FIG. 4)
Method: For RNA extraction from RPTEC cells, which are epithelial cells of the proximal tubule of the human kidneys, treated with the compounds of Comparative Example 1 and Examples 1 and 2 for 6 hours, an RNeasy kit from Qiagen Inc. was used. The results of preparing cDNA from extracted RNA using a Superscript II kit from Thermo Fisher Scientific. Inc. and performing the quantitative evaluation using Taqman Gene Expression assays from Applied Biosystems as a klotho (KL) gene-specific kit are illustrated in FIG. 4.

[5] = tested on: klotho (KL) gene; assay: Quantitative evaluation of klotho (KL) gene expression level using general PCR in RPTEC cells; format: cell-based, human; set-up: dose or concentration left out as unconfirmed; settings: general PCR (FIG. 5)
Method: After RPTEC cells, which are epithelial cells of the proximal tubule of the human kidneys, were each treated with the compounds of Examples 7 to 10 at […] for 6 hours. RNA was extracted from the cells, and cDNA was prepared from the extracted RNA using a Superscript II kit from Thermo Fisher Scientific, Inc., and then general PCR was performed.
Information on the primers used in the experiment is as follows.
The DNA amplified by PCR was confirmed by staining with ethidium bromide after electrophoresis on an agarose gel, and the amounts of DNA in the band were quantitatively compared using the SPEedyQuant program, and are illustrated in FIG. 5.

[6] = tested on: human kidney-2 (HK2) cells; assay: Toxicity test, EZ-Cytox kit; format: cell-based; settings: 12.5 μM or 25 μM, 24 hours
Method: Cultured human kidney-2 (HK2) cells were treated with Comparative Example 1, Example 2 and Examples 9 to 10 at a concentration of 25 μM or 12.5 μM, and after 24 hours, cytotoxicity was measured using an EZ-Cytox kit.

[7] = tested on: unilateral ureter obstruction model; assay: Unilateral ureter obstruction (UUO) model; format: in vivo; settings: UUO mice, 20 mg/kg/day into the abdominal cavity
Method: In a unilateral ureter obstruction model, 5-week-old male […] mice were used. After the right ureter was tied with a thread to create a unilateral ureter obstruction model, the KS1 compound (20 mg/kg/day) was injected into the abdominal cavity daily starting 24 hours later. After that, samples were collected by sacrificing the mice on days 7 and 14 and tested (FIG. 8A).

[8] = tested on: spontaneous hypertensive rat (SHR); assay: Effect of reducing hypertension in spontaneous hypertensive rat; format: in vivo; settings: SHR rats
Method: A 6-week-old rat male WKY/lzm was used as a normal control, and a 6-week-old rat male SHR/lzm was used as an experimental group in which hypertension was induced. All animals were purchased from the Central Laboratory Animal, and experiments were conducted at the rearing facility in a re-entry area within the Experimental Animal Center of the Osong Medical Innovation Foundation. The […] were quarantined and acclimatized for 7 days after receipt, and the health of the animals was observed during this period.
Group separation was performed on the end day of instrument acclimatization (group separation day) among animals having no general symptoms. […]
• (1) A test material and a positive control material were dissolved in an excipient in a liquid amount of 20 mIJkg according to the corresponding concentration. • (2) After quarantine and acclimatization, the excipient, the test material, and the positive control material were administered after group separation based on the blood pressure and body weight of animals. • (3) All administration groups were administered orally 7 times/week for 8 weeks using a 3 mL syringe with a liquid amount of 20 mL/kg based on the body weight measured once a week. […]
On days 36 and 64 after administration of the drug, blood pressure was measured by placing the animals in a blood pressure measuring frame and allowing the tails to come out. […]

[9] = tested on: Human renal proximal tubule epithelial cells (RPTECs); assay: Inhibition of cellular senescence, senescence β-galactosidase staining; format: cell-based
Method: Human renal proximal tubule epithelial cells (RPTECs), which are renal tubular epithelial cells, were purchased from Lonza, and as a culture medium, a REGM kit supplied by the same company was also used. Cells were cultured in a 37° C. incubator under 5% CO2 conditions. When the cells reached 80% saturation, the cells were treated with trypsin, transferred to a new culture dish, and subcultured. A compound was attached to the medium such that the final concentration was 2.5 μM, and a constant concentration was maintained by adding the compound thereto during each passage. […] As for the cells inducing senescence, cells subcultured 17 times (#17) in total were used.
“Senescence β-galactosidase staining kit” from Cell Signaling Technology, Inc. was used to confirm the degree of senescence of cells. On the day of the experiment, a staining solution was added to the cells, and the stained cells were confirmed 8 hours later. The number of stained cells was confirmed and expressed as a ratio among the total number of cells observed under a 200-fold microscope, and the number of stained cells at three different locations per sample was counted and averaged. As the senescence of the cells progresses, the expression of the enzyme β-galactosidase increases, and therefore the stained cells may be determined as more senescent cells than the non-stained cells.

[10] = RPTECs, Examples at 0.5, 1 and 5 μM, Comparative Example 1 at 5 μM, pHKP-luc (FIG. 2)

O=C(Nc1ccccc1Cl)c1c[nH]c2ccccc12 [Comparative Example 1, N-(2-chlorophenyl)-1H-indole-3-carboxamide]
luciferase activity [1]: highest

O=C(Nc1nc2ccccc2o1)c1ccc([N+](=O)[O-])cc1Cl [Example 1, N-(benzo[d]oxazol-2-yl)-2-chloro-4-nitrobenzamide]
expression of the reporter gene [2, 10]: at a level similar to that of Comparative Example 1

N.N.[Cl][Pt][Cl] [cisplatin, reference compound]
expression of the klotho protein [3]: decreased

Cc1ccc2oc(Nc3ccc(Cl)c(Cl)c3)nc2c1 [Example 2]
expression of the reporter gene ([2]; RPTEC cells, 5 μM, pHKP-luc (FIG. 3)): at a level similar to that of Comparative Example 1 | expression of the reporter gene [2, 10]: at a level similar to that of Comparative Example 1 | mRNA expression level of the klotho (KL) gene [4]: at a level similar to that of Comparative Example 1

Fc1ccc(Nc2nc3ccccc3o2)cc1F [Example 10, N-(3,4-difluorophenyl)benzo[d]oxazol-2-amine]
expression level of the klotho (KL) gene relative to Comparative Example 1 [5]: about 10 times | improvement of toxicity compared to Comparative Example 1 [6]: ≥ 20% | cytotoxicity ([6]; EZ-Cytox (FIG. 6)): least toxicity | expression of the klotho protein [3]: increased | renal hypertrophy (kidney size) ([7]; days 7 and 14 (FIG. 8B)): no difference in size | nuclear and cytoplasmic changes, H&E staining ([7]; one-week and two-week samples (FIG. 9)): large reduction in tissue destruction | klotho protein expression ([7]; one-week sample (FIG. 12)): increased | fibrosis progression, Sirius Red staining ([7]; versus UUO model not treated with KS1 (FIG. 10)): fibrosis occurred less | degree of apoptosis, TUNEL staining ([7]; versus UUO model not treated with KS1 (FIG. 11)): remarkably reduced | expression level of MMP-9 protein (inflammation marker) ([7]; week 1 and week 2 (FIG. 13)): remarkably reduced | blood pressure reduction effect on co-administration with losartan ([8]; KS1 co-administered with losartan, versus each drug administered independently (FIG. 14)): better blood pressure reduction effect | systolic pressure ([8]; oral 20 mg/kg/day for 8 weeks, measured days 36 and 64 (FIG. 14)): remarkably reduced | cells stained (senescence β-galactosidase) ([9]; RPTECs subcultured 17 times, 2.5 μM in medium, DMSO about 90% (FIG. 15)): about 70% | decrease in degree of senescence compared to DMSO ([9]; RPTECs, 17 passages, 2.5 μM): about 20%

— patent US20260125351A1, “COMPOUND FOR INDUCING EXPRESSION OF ANTI-AGING GENE KLOTHO AND USE THEREOF” (KLOTHO SCIENCES, priority 2019, published 2026)
